Measurements reported in patent publication EP3901142A1, “PYRAZOLYLBENZENE-1,3-DIOLS FOR DISEASES ASSOCIATED WITH G PROTEIN-COUPLED RECEPTOR 18 AND IN COMBINATION WITH TRANSIENT RECEPTOR POTENTIAL VANILLOID 1” (Consejo Superior de Investigaciones Científicas (CSIC), priority 2020, dated 2021).

Target: TRPV1 (Homo sapiens, UniProt Q8NER1)
Assay: Calcium imaging (Fura-2 AM) in TRPV1-expressing cells
Type: cell-based
Settings: 5 µM; TPRV1-expressing cells
Protocol: Cell Culture. A plasmid containing GPR18 (NM_005292) was obtained from Origene (Rockville, MD) and engineered with an N-terminal GFP-tag. The resulting plasmid was used to transfect CHO-K1 cells using Lipofectamine 2000 (Invitrogen, Carlsbad CA). Clonal cells were selected in medium containing G418 (Geneticin, 800 µg/ml; Enzo Life Sciences, Farmingdale, NY). Two weeks after transfection, clones were isolated and expression was verified by fluorescence microscopy of GFP-tagged receptors. The resulting stable cell line was cultured in DMEM with 10% fetal bovine serum at 37°C, 5% CO2 and passaged every 2-3 days. […] Two weeks after transfection, clones were isolated and expression was verified by fluorescence microscopy of HA-tagged receptors. […] Intracellular calcium levels were determined by measuring fluorescence emissions from Fura-2 AM (510 nm) after alternating excitation at 340 and 380 nm at 0.25 Hz for 5 min. Images were analyzed in the NIS-Elements AR software (Nikon), and the fluorescence ratio at 340nm/380nm was converted to Ca^2+ concentrations.

Chain of TRPV1 (Q8NER1 whole entry): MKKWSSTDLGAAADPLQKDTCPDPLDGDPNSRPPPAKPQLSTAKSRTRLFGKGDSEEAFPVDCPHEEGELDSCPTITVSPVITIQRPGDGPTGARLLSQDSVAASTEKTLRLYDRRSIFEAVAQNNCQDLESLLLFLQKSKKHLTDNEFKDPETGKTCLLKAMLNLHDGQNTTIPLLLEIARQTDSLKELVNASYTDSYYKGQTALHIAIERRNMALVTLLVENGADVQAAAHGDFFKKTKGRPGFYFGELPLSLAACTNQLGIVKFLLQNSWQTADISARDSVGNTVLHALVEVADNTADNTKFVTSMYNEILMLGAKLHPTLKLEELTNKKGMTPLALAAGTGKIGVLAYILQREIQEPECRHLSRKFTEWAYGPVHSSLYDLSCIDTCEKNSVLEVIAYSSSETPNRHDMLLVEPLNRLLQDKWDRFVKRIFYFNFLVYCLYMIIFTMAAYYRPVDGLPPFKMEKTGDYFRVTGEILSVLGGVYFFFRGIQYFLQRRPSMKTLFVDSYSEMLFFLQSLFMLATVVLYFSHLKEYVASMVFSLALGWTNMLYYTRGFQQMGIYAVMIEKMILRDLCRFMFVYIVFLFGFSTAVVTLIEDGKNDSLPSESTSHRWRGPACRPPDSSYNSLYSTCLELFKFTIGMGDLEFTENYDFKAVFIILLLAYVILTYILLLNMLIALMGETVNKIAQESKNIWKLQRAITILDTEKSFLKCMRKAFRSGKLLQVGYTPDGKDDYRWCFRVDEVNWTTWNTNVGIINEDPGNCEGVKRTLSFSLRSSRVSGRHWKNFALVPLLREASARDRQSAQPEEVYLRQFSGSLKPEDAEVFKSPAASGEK

SMILES: CCCCC/C=C\C/C=C\C/C=C\C/C=C\CCCC(=O)NCCO [Anandamide]
- effect on intracellular calcium (Ca^2+): increases intracellular calcium (Ca^2+)
